# Assays:
# [1] = tested on: lipid peroxidation in brain homogeneous substance; assay: Antioxidation activation test: lipid peroxidation assay (TBARS/MDA) in brain homogenate with FeCl2/ascorbic acid; assay type: biochemical, SD rat; conditions: for IC50: 50% inhibitory concentration of lipid peroxidation (TBARS at 520 nm), rat brain homogenate, FeCl2/ascorbic acid; for antioxidation activity increased compared with the prior antioxidation activator BHT: relative to BHT IC50 of Table 4
# Procedure: After decapitating a SD rat (male, 10–12 weeks old) and rapidly extracting the brain, 10 mM Tris-HCl buffer solution (pH 7.4) containing 150 mM KCl is added to 10 ml/brain and homogenated. Then, the homogenated brain mixture is centrifuged for 10 minutes at 2,200 rpm, 4° C., and the upper layer is collected through protein assay. The exact amount of protein is measured and kept at −20° C.
# 250 μl of brain homogeneous substance (5 mg protein/ml), 10 μl of sample substance, 20 μl of buffer solution is divided at the 96-well micro plate one by one, and cultured for 20 minutes at 37° C. under a shaking condition. Then, 10 μl of 20 μM FeCl2 and 250 μM ascorbic acid is respectively added to the mixture and cultured for 30 minutes at 37° C. After completing the reaction by adding 50 μl of 35% HClO4 to the mixture, the micro plate is centrifuged for 10 minutes at 2,000 rpm, 4° C., and only the upper layer is transferred to the 96-well micro plate in an amount of 240 μl, and then, 120 μl of TBA (thiabarbituric acid; 5 mg/ml in 50% acetic acid) is added to the mixture. After reacting the micro plate for an hour at 80° C., it is cooled at room temperature, and the optical density of the thus obtained TBARS (thiobarbituric acid reactive substances, MDA) is measured at 520 nm.
# The assay response curve of TBARS obtained using tetraethoxypropane, a reaction substance of TBA is used in calculating the amount of reaction product MDA of the sample substance, and the oxidation inhibition effect of the test drug is obtained by the following equation 1. Further, the 50% inhibitory concentration (IC50) is obtained using the dose response curve.
# wherein, A is the concentration (nmol) of the control protein (MDA/mg), and
# B is the concentration (nmol) of the experiment protein (MDA/mg).
Compound,IC50 [1] [nM],melting point [°C],antioxidation activity increased compared with the prior antioxidation activator BHT [1] [%]
"CCCCOc1cc(/C=C/C(=O)NCCc2cc(C(C)(C)C)c(O)c(C(C)(C)C)c2)cc(OCCCC)c1O [Example 1, 3-(3,5-dibutoxy-4-hydroxyphenyl)-N-[2-(3,5-di-t-butyl-4-hydroxyphenyl)ethyl]acrylamide]",–,82 to 85,–
"CCCCCCCCCOc1cc(CN2CCN(CC(O)c3ccc(Cl)cc3)CC2)cc(OCCCCCCCCC)c1O (stereo not shown) [Example 8, 4-{4-[2-(4-chlorophenyl)-2-hydroethyl]piperazine-1-ylmethyl}-2,6-bis-nonyloxyphenol]",1530,–,27
"CCCCOc1cc(CCC(=O)N2CCN(CC(O)c3ccc(Cl)cc3)CC2)cc(OCCCC)c1O (stereo not shown) [Example 15, 1-{4-[2-(4-chlorophenyl)-2-hydroxyethyl]piperazine-1-yl}-3-(3,5-dibutoxy-4-hydroxyphenyl)propane-1-one]",910,–,56
"CCCCOc1cc(/C=C/C(=O)N2CCN(c3ccc(NC(=N)c4cccs4)cc3)CC2)cc(OCCCC)c1O [Example 19, N-(4-{4-[3-(3,5-dibutoxy-4-hydroxy-phenyl)-acryloyl]-piperazine-1-yl}-phenyl)-thiophene-2-carboxamidine]",–,99 to 102,82
"CCCCOc1cc(/C=C/C(=O)N2CCN(c3ccc(NC(=N)c4ccc[nH]4)cc3)CC2)cc(OCCCC)c1O [Example 22, N-(4-{4-[3-(3,5-dibutoxy-4-hydroxy-phenyl)-acryloyl]-piperazine-1-yl}-phenyl)-1H-pyrrole-2-carboxamidine]",370,–,82
"CCCCCOc1cc(/C=C/C(=O)N2CCN(c3ccc(NC(=N)c4ccc[nH]4)cc3)CC2)cc(OCCCCC)c1O [Example 23, N-(4-{4-[3-(4-hydroxy-3,5-bis-penyloxy-phenyl)-acryloyl]-piperazine-1-yl}-phenyl)-1H-pyrrole-2-carboxamidine]",450,109 to 116,–
"CCCCCCCOc1cc(/C=C/C(=O)N2CCN(c3ccc(NC(=N)c4ccc[nH]4)cc3)CC2)cc(OCCCCCCC)c1O [Example 24, N-(4-{4-[3-(3,5-bis-heptyloxy-4-hydroxy-phenyl)-acryloyl]-piperazine-1-yl}-phenyl)-1H-pyrrole-2-carboxamidine]",–,100 to 145,–

# The next lines start with results.
IC50 [1] [nM],melting point [°C],Compound,antioxidation activity increased compared with the prior antioxidation activator BHT [1] [%]
2090,–,"Cc1cc(C(C)(C)C)c(O)c(C(C)(C)C)c1 [BHT, tert-butyl-hydroxytoluene, reference compound]",–
–,75 to 80,"CCC(CC)Oc1cc(/C=C/C(=O)NCc2cc(C(C)(C)C)c(O)c(C(C)(C)C)c2)cc(OC(CC)CC)c1O [Example 4, 3-[3,5-bis-(1-ethylpropoxy)-4-hydroxyphenyl]-N-(3,5-di-t-butyl-4-hydroxybenzyl)acrylamide]",–
–,137 to 140,"CCCCCCOc1cc(/C=C/C(=O)Nc2ccccc2O)cc(OCCCCCC)c1O [Example 6, 3-(3,5-bishexyloxy-4-hydroxyphenyl)-N-(2-hydroxyphenyl)acrylamide]",–
260,–,"CCCCCCOc1cc(C=CC(=O)N2CCN(CC(O)c3ccc(F)cc3)CC2)cc(OCCCCCC)c1O (stereo not shown) [Example 12, 3-(3,5-bis-hexyloxy-4-hydroxyphenyl)-1-{4-[2-(4-fluorophenyl)-2-hydroxyethyl]piperazine-1-yl}propenone]",88
510,–,"CC(C)(C)c1cc(/C=C/C(=O)N2CCN(c3ccc(NC(=N)c4cccs4)cc3)CC2)cc(C(C)(C)C)c1O [Example 16, N-(4-(4-[3-(3,5-di-t-butyl-4-hydroxy-phenyl)-acryloyl]-piperizine-lyl}-phenyl)-thiophene-2-carboxamidine]",–
470,170 to 171,CCC(CC)Oc1cc(/C=C/C(=O)N2CCN(c3ccc(NC(=N)c4cccs4)cc3)CC2)cc(OC(CC)CC)c1O [Example 17],–
490,–,"CCCOc1cc(/C=C/C(=O)N2CCN(c3ccc(NC(=N)c4cccs4)cc3)CC2)cc(OCCC)c1O [Example 18, N-(4-{4-[3-(4-hydroxy-3,5-dipropoxy-phenyl)-acryloyl]-piperazine-1-yl}-phenyl)-thiophene-2-carboxamidine]",–
–,149 to 167,"CC(C)(C)c1cc(/C=C/C(=O)N2CCN(c3ccc(NC(=N)c4ccc[nH]4)cc3)CC2)cc(C(C)(C)C)c1O [Example 21, N-(4-{4-[3-(3,5-di-t-butyl-4-hydroxy-phenyl)-acryloyl]-piperazine-1-yl}-phenyl)-1H-pyrrole-2-carboxamidine]",–

# — patent US7078407B2, “4-hydroxycinnamamide derivatives as antioxidants and pharmaceutical compositions containing them” (Korea Research Institute of Chemical Technology, priority 2001, dated 2006)
